Bounds are passed on as bounds.

Data set [1] in a line: Lethal dose defined as as the lowest dose resulting in the death of a single mouse. In kind it is toxicity. The following applies: in vivo.
Data set [2] concerns Staphylococcus aureus. Description: Effect of 43 mg/mL of Human Serum Albumin, Fraction V (HSA Fr. V) on antimicrobial activity was assessed against Methicillin sensitive Staphylococcus aureus strain MB 2985. It counts as functional.
In the next data set the test system is Staphylococcus sp. Description: In vitro antibacterial activity against MRCNS. In kind it is functional.
Data set [3] relates to Staphylococcus aureus. Description: Antibacterial activity against Methicillin sensitive Staphylococcus aureus-/+ HSA Fr. V. In kind it is functional.
For data set [4], the system named is Staphylococcus aureus. Description: In vitro antibacterial activity against MRSA. In kind it is functional.
The test system of data set [5] is Enterococcus faecium. Kind of data set: Antibacterial activity against MDREFm. In kind it is functional.
Data set [6] concerns the target T1, Dipeptidase 1 (Sus scrofa) (UniProt P22412).
T1 sequence (whole entry): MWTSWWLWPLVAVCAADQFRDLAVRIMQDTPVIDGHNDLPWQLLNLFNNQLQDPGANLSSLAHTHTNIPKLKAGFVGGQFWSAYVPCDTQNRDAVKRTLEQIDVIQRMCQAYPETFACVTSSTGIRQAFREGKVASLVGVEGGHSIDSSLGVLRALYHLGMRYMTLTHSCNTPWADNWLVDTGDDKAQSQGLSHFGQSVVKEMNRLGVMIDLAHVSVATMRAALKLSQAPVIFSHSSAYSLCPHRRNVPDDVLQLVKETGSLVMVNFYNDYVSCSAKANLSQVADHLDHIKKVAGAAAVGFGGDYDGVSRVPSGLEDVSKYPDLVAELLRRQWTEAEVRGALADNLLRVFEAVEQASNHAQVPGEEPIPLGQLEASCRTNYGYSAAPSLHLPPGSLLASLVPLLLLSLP
Description: Susceptibility to hog kidney dehydropeptidase-I. In kind it is functional, tissue-based. Set-up: reference not given here.

For the next data set, the species on record is Mus musculus. Kind of data set: Dose showing no visible effects (ataxia, somnolence) in two mice. It counts as functional.
Data set [7] relates to Enterococcus faecium. Description: Antibacterial activity against VREFs. In kind it is functional.
The test system of the next data set is Streptococcus pneumoniae. Description: In vitro antibacterial activity against PRSP. It counts as functional.
For data set [8], the system named is Staphylococcus aureus. Kind of data set: Effect of 43 mg/mL of Human Serum Albumin, Fraction V (HSA Fr. V) on antimicrobial activity was assessed against MSSA strain MB 2985. In kind it is functional.
Data set [9] deals with Enterococcus faecium. Kind of data set: In vitro antibacterial activity against MDREFm. In kind it is functional.
In data set [10] the test system is Staphylococcus aureus. Description: Antibacterial activity against Methicillin sensitive Staphylococcus aureus. In kind it is functional.
Another data set deals with Enterococcus faecalis. Description: In vitro antibacterial activity against VREFs. It counts as functional.
In data set [11] the target is T1, Dipeptidase 1 (Sus scrofa). Kind of data set: Compound was tested for susceptibility to hog kidney dehydropeptidase-I and expressed as a reaction rate normalized to the rate observed with imipenem (IPM). It counts as functional, tissue-based.

`C[C@@H](O)[C@H]1C(=O)N2C(C(=O)O)=C(CN3c4cccc5c(CC[N+]67CC[N+](CC(N)=O)(CC6)CC7)ccc(c45)S3(=O)=O)[C@H](C)[C@H]12.[Cl-].[Cl-]` came in with a Lethal dose in data set [1] of over 500 mg/kg. Also, the MIC (commonly the lowest concentration that inhibits growth of the organism) in the data set on Staphylococcus aureus [2] was 0.031 µg/mL; in the data set on Staphylococcus sp., 1 µg/mL; against Staphylococcus aureus [3], 0.016 µg/mL; in the data set on Staphylococcus aureus [4] it was 0.7 µg/mL; against Enterococcus faecium [5] it was 4 µg/mL; in the data set on Enterococcus faecium [7] it was 8 µg/mL. The compound further displayed an MIC against Streptococcus pneumoniae of 0.17 µg/mL. In [6], this compound gave an Activity of 1.77. The NOEL in the data set listed under Mus musculus is 250 mg/kg.

As for `C[C@@H](O)[C@H]1C(=O)N2C(C(=O)O)=C(CN3c4cccc5ccc(CC[N+]67CC[N+](CC(N)=O)(CC6)CC7)c(c45)S3(=O)=O)[C@H](C)[C@H]12.[Cl-].[Cl-]`, the MIC in the data set on Staphylococcus aureus [8] is 0.016 µg/mL; against Staphylococcus sp., 1.2 µg/mL; in the data set with Enterococcus faecium [9] it was 10.1 µg/mL; against Staphylococcus aureus [4] it was 0.9 µg/mL; against Staphylococcus aureus [10], 0.016 µg/mL; in the data set on Enterococcus faecalis it was 8 µg/mL. This compound also showed a minimum inhibitory concentration (MIC) in the data set with Streptococcus pneumoniae of 0.35 µg/mL. In addition, the Lethal dose in data set [1] is 63 mg/kg. In data set [6], the Activity was 0. Also, the NOEL in the data set listed under Mus musculus turned out to be 16 mg/kg.

`C[C@@H](O)[C@H]1C(=O)N2C(C(=O)O)=C(CN3c4cccc5c(CC[N+]67CC[N+](Cc8ccccc8)(CC6)CC7)ccc(c45)S3(=O)=O)[C@H](C)[C@H]12.[Cl-].[Cl-]` registered a Lethal dose in [1] of 250 mg/kg. The MIC is 1.3 µg/mL with Staphylococcus sp.; 6.4 µg/mL with Enterococcus faecium [9]; 0.9 µg/mL in the data set on Staphylococcus aureus [4]; 8 µg/mL in the data set on Enterococcus faecalis; 0.35 µg/mL against Streptococcus pneumoniae. The compound also displayed an Activity in data set [11] of 1.85. This compound also registered an NOEL in the data set listed under Mus musculus of 63 mg/kg.
